Measured values from the supplement of paper PMC13380429.

Columns and labels:
Settings in all cases: 72 h
Caco-2 [1] = assay: cell viability relative to DMSO; higher = less toxic
Calu-3 [2] = assay: as above
HepG2 [3] = assay: as above
U2OS [4] = assay: as above
Vero E6 [5] = assay: as above
Caco-2 [6] = assay: relative viability EC50 (midpoint between 100% and the lowest measured viability); higher = less toxic
Calu-3 [7] = assay: as above
HepG2 [8] = assay: as above
U2OS [9] = assay: as above
Vero E6 [10] = assay: as above
Caco-2 [11] = assay: drug sensitivity score (DSS) for viability; higher = more toxic; extreme values may be limits of the assay
Calu-3 [12] = assay: as above
HepG2 [13] = assay: as above
U2OS [14] = assay: as above
Vero E6 [15] = assay: as above

Structure (SMILES) | cell viability (Caco-2 [1]; 1 nM) | cell viability (Caco-2 [1]; 10 nM) | cell viability (Caco-2 [1]; 100 nM) | cell viability (Caco-2 [1]; 1000 nM) | cell viability (Caco-2 [1]; 10000 nM) | cell viability (Calu-3 [2]; 1 nM) | cell viability (Calu-3 [2]; 10 nM) | cell viability (Calu-3 [2]; 100 nM) | cell viability (Calu-3 [2]; 1000 nM) | cell viability (Calu-3 [2]; 10000 nM) | cell viability (HepG2 [3]; 1 nM) | cell viability (HepG2 [3]; 10 nM) | cell viability (HepG2 [3]; 100 nM) | cell viability (HepG2 [3]; 1000 nM) | cell viability (HepG2 [3]; 10000 nM) | cell viability (U2OS [4]; 1 nM) | cell viability (U2OS [4]; 10 nM) | cell viability (U2OS [4]; 100 nM) | cell viability (U2OS [4]; 1000 nM) | cell viability (U2OS [4]; 10000 nM) | cell viability (Vero E6 [5]; 1 nM) | cell viability (Vero E6 [5]; 10 nM) | cell viability (Vero E6 [5]; 100 nM) | cell viability (Vero E6 [5]; 1000 nM) | cell viability (Vero E6 [5]; 10000 nM) | relative viability EC50 (Caco-2 [6]) | relative viability EC50 (Calu-3 [7]) | relative viability EC50 (HepG2 [8]) | relative viability EC50 (U2OS [9]) | relative viability EC50 (Vero E6 [10]) | drug sensitivity score (Caco-2 [11]) | drug sensitivity score (Calu-3 [12]) | drug sensitivity score (HepG2 [13]) | drug sensitivity score (U2OS [14]) | drug sensitivity score (Vero E6 [15])
O=C(NCc1ccccn1)Nc1nnc(-c2ccco2)o1 [NK-252] | 103% | 94.6% | 103% | 91.5% | 80.7% | 104% | 99.9% | 94.2% | 103% | 107% | 104% | 97.4% | 90.4% | 77.2% | 30.6% | 103% | 101% | 105% | 99.3% | 103% | 94.5% | 104% | 104% | 103% | 101% | > 10 µM | > 10 µM | 1.47 µM | > 10 µM | > 10 µM | 1.4 | 0 | 6.5 | 0 | 0
C[C@@]1(O)[C@H](O)[C@@H](CO)O[C@H]1n1ccc(N)nc1=O [NM107] | 93% | 97.3% | 95.9% | 91.2% | 103% | 99.1% | 104% | 95% | 93.9% | 84.6% | 99% | 107% | 106% | 111% | 110% | 98.3% | 93.4% | 100% | 94.8% | 101% | 96% | 100% | 88.7% | 99.4% | 113% | > 10 µM | > 10 µM | > 10 µM | > 10 µM | > 10 µM | 0 | 0.3 | 0 | 0 | 0
Cc1cc(OCc2nnc(SC3CCCC3)n2-c2cccnc2)ccc1-c1ccc(S(C)(=O)=O)cc1 [NMS-873] | 102% | 101% | 83.6% | 77.7% | 17.8% | 88.8% | 93.1% | 92.1% | 85.3% | 16.2% | 107% | 96.2% | 61.6% | 19.7% | 1.5% | 97% | 98.5% | 91.1% | 84.6% | 0.2% | 105% | 102% | 107% | 88% | 0.3% | 1.64 µM | 1.85 µM | 0.175 µM | 1.96 µM | 2.19 µM | 7.3 | 7.1 | 19.7 | 8.1 | 7.5
c1ccc2c(c1)CCC[C@H]2Nc1nc2ccccc2[nH]1 [NS-8593] | 93.1% | 92.9% | 92.4% | 97.2% | 92.2% | 96.2% | 96.2% | 94% | 94.3% | 90.1% | 96.8% | 96.8% | 106% | 99.2% | 78.5% | 104% | 98.1% | 96.2% | 100% | 90.1% | 94% | 95.1% | 95.6% | 98.4% | 87.4% | > 10 µM | > 10 µM | > 10 µM | > 10 µM | > 10 µM | 0 | 0 | 0.8 | 0 | 0
CCCCCCCCCC(=O)O[C@H]1CC[C@H]2[C@@H]3CCC4=CC(=O)CC[C@@H]4[C@H]3CC[C@]12C [Nandrolone decanoate] | 90.7% | 104% | 96.2% | 106% | 96.4% | 94.1% | 88.6% | 83% | 90.9% | 89% | 104% | 95.7% | 97.9% | 102% | 101% | 102% | 99.3% | 99.1% | 101% | 94% | 108% | 97.1% | 102% | 97.5% | 104% | > 10 µM | > 10 µM | > 10 µM | > 10 µM | > 10 µM | 0 | 0 | 0 | 0 | 0
COC(=O)C1=C(C)NC(C)=C(C(=O)OCCSc2ccccc2)[C@@H]1C [PCA-4248] | 97.7% | 99.4% | 102% | 94.8% | 84% | 93.8% | 95.6% | 104% | 99% | 87.7% | 92% | 90.3% | 93.4% | 94.6% | 95.9% | 98% | 95.9% | 93.6% | 92.9% | 96.1% | 98.1% | 99.1% | 98.2% | 96.5% | 98.8% | > 10 µM | > 10 µM | > 10 µM | > 10 µM | > 10 µM | 0.8 | 0.1 | 0 | 0 | 0
CN1CCN(C(=O)CN[C@@H]2C[C@H]2c2ccc(OCc3ccccc3)cc2)CC1 [RN-1] | 109% | 95.2% | 90.2% | 89.2% | 83.3% | 89.9% | 82.5% | 96.1% | 94.5% | 108% | 87.4% | 103% | 99.9% | 94.2% | 84.9% | 103% | 98.3% | 102% | 96.7% | 96% | 99.5% | 102% | 105% | 92.2% | 89.1% | > 10 µM | > 10 µM | > 10 µM | > 10 µM | > 10 µM | 1.5 | 0 | 0.7 | 0 | 0.1
CS(=O)(=O)c1ccc([C@@H](CC2CCCC2)C(=O)Nc2nccs2)cc1 [Ro-28-1675] | 92% | 97.8% | 102% | 106% | 92.2% | 103% | 100% | 114% | 99.6% | 99.3% | 97.2% | 96.4% | 108% | 90.8% | 103% | 101% | 96.1% | 101% | 102% | 98.9% | 95.5% | 95.2% | 96.8% | 91.1% | 98.9% | > 10 µM | > 10 µM | > 10 µM | > 10 µM | > 10 µM | 0 | 0 | 0 | 0 | 0
C[C@H](N)Cn1ccc2cc(F)c(Cl)cc21 [Ro-60-0175] | 94.9% | 90.9% | 101% | 95.8% | 85.2% | 93.7% | 92.3% | 87.4% | 95.6% | 87.2% | 99.5% | 101% | 106% | 99.8% | 103% | 96.5% | 106% | 96.9% | 104% | 93.3% | 104% | 98.4% | 100% | 95.3% | 96% | > 10 µM | > 10 µM | > 10 µM | > 10 µM | > 10 µM | 0.6 | 0 | 0 | 0 | 0
O=C(N/N=C/c1ccccc1O)c1ccccc1O [SCS] | 97% | 97.6% | 88.6% | 76.5% | 3.6% | 108% | 94.9% | 98.2% | 99.3% | 11.9% | 102% | 94.6% | 94.1% | 86.6% | 5.5% | 98.7% | 104% | 95.6% | 91.1% | 46.3% | 97.6% | 100% | 101% | 102% | 45.4% | 1.6 µM | 3.11 µM | 2.04 µM | 1.89 µM | 3.35 µM | 8.8 | 5 | 7.5 | 4.4 | 2.8
Fc1ccc(-c2nc(-c3c(F)cccc3F)[nH]c2-c2ccncc2)cc1 [TA-01] | 105% | 109% | 99.9% | 84.7% | 96.1% | 104% | 107% | 97.2% | 85.2% | 94.6% | 108% | 97.3% | 94.3% | 99.4% | 98.4% | 108% | 112% | 101% | 98.6% | 95.9% | 112% | 106% | 95% | 94.7% | 93.7% | > 10 µM | > 10 µM | > 10 µM | > 10 µM | > 10 µM | 1.5 | 1.6 | 0 | 0 | 0
O=[N+]([O-])c1c(Nc2cc(F)cc(Cl)c2)ccc2nonc12 [TC-S-7009] | 99.2% | 96.3% | 97.2% | 95.9% | 92.9% | 102% | 98.1% | 104% | 106% | 104% | 93.1% | 103% | 95.3% | 85.7% | 94.5% | 100% | 106% | 97.9% | 105% | 95.9% | 102% | 102% | 96.4% | 99.5% | 95.8% | > 10 µM | > 10 µM | > 10 µM | > 10 µM | > 10 µM | 0 | 0 | 0 | 0 | 0
CCOC(=O)c1ccccc1OC(=O)CCCCCCCC(=O)Oc1ccccc1C(=O)OCC [TU-2100] | 97.9% | 101% | 92.1% | 95.6% | 100% | 94.1% | 104% | 92.3% | 95.7% | 108% | 97.9% | 104% | 106% | 96.7% | 98.9% | 102% | 100% | 97.3% | 99.6% | 99.3% | 95.5% | 101% | 102% | 101% | 99.9% | > 10 µM | > 10 µM | > 10 µM | > 10 µM | > 10 µM | 0 | 0 | 0 | 0 | 0
NC(=O)c1cccc(-c2cccc(OC(=O)NC3CCCCC3)c2)c1 [URB597] | 93.9% | 98.7% | 93.9% | 103% | 89.1% | 86.4% | 94.6% | 92.7% | 88.4% | 99.1% | 104% | 105% | 104% | 96.9% | 92.3% | 94% | 102% | 98.5% | 105% | 98.8% | 107% | 98.5% | 104% | 96.7% | 103% | > 10 µM | > 10 µM | > 10 µM | > 10 µM | > 10 µM | 0 | 0 | 0 | 0 | 0
CCC[C@H](NC(=O)/C(C#N)=C/c1cccc(Br)n1)c1ccccc1 [WP1130] | 106% | 103% | 93.2% | 93% | 21.3% | 100% | 97.1% | 90.7% | 118% | 10.8% | 99.8% | 105% | 101% | 100% | 0.8% | 95.7% | 108% | 97.5% | 94.6% | 0.9% | 101% | 100% | 100% | 97.6% | 3.5% | 2.43 µM | 3.94 µM | 3.18 µM | 2.74 µM | 2.98 µM | 5.5 | 4 | 5.5 | 6.3 | 5.7
